These are literature values, as cited in patent US9375470B2, “Compositions with reduced dimer formation” (Circassia Limited, priority 2008, dated 2016).

Like-named read-outs stand apart in the source and are kept apart here.

Setting [1] is: reported values, Tg for the maximally freeze concentrated state.

For the compound `OC[C@H]1O[C@@](CO)(O[C@H]2O[C@H](CO)[C@@H](O)[C@H](O)[C@H]2O)[C@@H](O[C@H]2O[C@H](CO)[C@@H](O)[C@H](O)[C@H]2O)[C@@H]1O` [Melezitose], the Tg (reported values) was greater than 100 °C.

Turning to `OC[C@H]1O[C@H](OC[C@H]2O[C@H](O[C@]3(CO)O[C@H](CO)[C@@H](O)[C@@H]3O)[C@H](O)[C@@H](O)[C@@H]2O)[C@H](O)[C@@H](O)[C@H]1O` [Raffinose], the Tg (reported values) is 70-106 °C. Also, the “Tg′” value under setting [1] is “Approx. −36”.

With `OC[C@H]1O[C@H](OC[C@H]2O[C@H](OC[C@H]3O[C@H](O[C@]4(CO)O[C@H](CO)[C@@H](O)[C@@H]4O)[C@H](O)[C@@H](O)[C@@H]3O)[C@H](O)[C@@H](O)[C@H]2O)[C@H](O)[C@@H](O)[C@H]1O` [Stachyose], the Tg (reported values) is 81-123 °C.

For the compound `OC[C@H]1O[C@@](CO)(O[C@H]2O[C@H](CO)[C@@H](O)[C@H](O)[C@H]2O)[C@@H](O)[C@@H]1O` [Sucrose], the “Tg′” value is −32 °C. In addition, the Tg (reported values) is 43-65 °C. Besides, the “Tg′” value under setting [1] was “Approx. −46”.

With `OC[C@H]1O[C@H](O[C@H]2O[C@H](CO)[C@@H](O)[C@H](O)[C@H]2O)[C@H](O)[C@@H](O)[C@@H]1O` [Trehalose], the Tg (reported values) was 63-115 °C. The “Tg′” value under setting [1] is “Approx. −27”.

With `OC[C@@H](O)[C@@H](O)[C@H](O)[C@H](O)CO` [mannitol], the “Teut (eutectic temperature)” value is −3 °C.
